Experimental data as given in patent US8501936B2 (priority 2009, dated 2013).

Assays:
human FAK = human FAK (Homo sapiens (Human), UniProt Q05397); conditions: read-out: FAK IC50
human JAK2 = human JAK2 (Homo sapiens (Human), UniProt O60674); conditions: read-out: JAK2 IC50
human JAK2, sequence (O60674 815-1132): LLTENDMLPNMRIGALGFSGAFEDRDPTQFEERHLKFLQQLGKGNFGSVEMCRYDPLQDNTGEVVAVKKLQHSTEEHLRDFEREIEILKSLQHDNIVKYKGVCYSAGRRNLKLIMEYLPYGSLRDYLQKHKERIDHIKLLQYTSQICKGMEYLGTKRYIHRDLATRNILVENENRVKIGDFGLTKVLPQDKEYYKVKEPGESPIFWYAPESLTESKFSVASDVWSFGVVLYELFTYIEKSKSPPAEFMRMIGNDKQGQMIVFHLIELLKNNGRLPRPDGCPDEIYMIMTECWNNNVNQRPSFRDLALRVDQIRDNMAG

human FAK, sequence (Q05397 whole entry): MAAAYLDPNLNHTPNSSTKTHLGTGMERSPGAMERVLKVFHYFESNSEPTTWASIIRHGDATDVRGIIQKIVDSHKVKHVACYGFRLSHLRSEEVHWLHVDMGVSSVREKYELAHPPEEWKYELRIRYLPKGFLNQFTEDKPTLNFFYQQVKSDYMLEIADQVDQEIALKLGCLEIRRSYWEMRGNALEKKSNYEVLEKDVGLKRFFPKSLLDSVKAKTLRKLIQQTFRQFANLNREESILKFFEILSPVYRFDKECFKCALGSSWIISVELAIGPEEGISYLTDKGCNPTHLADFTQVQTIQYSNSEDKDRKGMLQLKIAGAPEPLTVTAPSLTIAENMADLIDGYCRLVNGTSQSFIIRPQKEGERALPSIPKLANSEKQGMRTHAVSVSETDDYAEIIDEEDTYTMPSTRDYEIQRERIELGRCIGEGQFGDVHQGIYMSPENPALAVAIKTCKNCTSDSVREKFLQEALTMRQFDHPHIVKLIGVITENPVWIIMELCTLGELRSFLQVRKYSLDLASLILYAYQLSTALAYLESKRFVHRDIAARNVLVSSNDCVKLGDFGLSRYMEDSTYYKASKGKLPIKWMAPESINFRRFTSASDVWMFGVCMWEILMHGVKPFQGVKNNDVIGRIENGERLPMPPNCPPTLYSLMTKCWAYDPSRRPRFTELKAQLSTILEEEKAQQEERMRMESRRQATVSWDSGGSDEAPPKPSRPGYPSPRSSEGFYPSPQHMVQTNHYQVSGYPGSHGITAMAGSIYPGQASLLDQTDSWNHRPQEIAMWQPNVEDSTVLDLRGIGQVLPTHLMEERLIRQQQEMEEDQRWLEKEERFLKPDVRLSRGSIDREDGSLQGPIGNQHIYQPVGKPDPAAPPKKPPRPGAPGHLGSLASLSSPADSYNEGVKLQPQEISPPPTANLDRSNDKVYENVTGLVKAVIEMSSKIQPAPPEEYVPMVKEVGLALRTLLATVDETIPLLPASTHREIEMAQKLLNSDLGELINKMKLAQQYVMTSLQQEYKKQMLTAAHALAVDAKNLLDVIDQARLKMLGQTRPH

Q: How did the IC50 (human FAK) turn out when `CN1CCN(c2ccc(Nc3nc4c(-c5ccc(S(C)(=O)=O)cc5)cccn4n3)cc2)CC1` [Example 32, [8-(4-Methanesulfonyl-phenyl)-[1,2,4]triazolo[1,5-a]pyridin-2-yl]-[4-(4-methyl-piperazin-1-yl)-phenyl]-amine] was run?
A: 410 nM

Q: What about the IC50 (human JAK2) of the same compound?
A: 2.4 nM

Q: What does the source list for `CN1CCC(c2ccc(Nc3nc4c(Nc5ccccc5CN(C)S(C)(=O)=O)cccn4n3)cc2)CC1` [Example 174, N-Methyl-N-(2-{2-[4-(1-methyl-piperidin-4-yl)-phenylamino]-[1,2,4]triazolo[1,5-a]pyridin-8-ylamino}-benzyl)-methanesulfonamide]?
A: IC50 (human FAK): 10000 nM; IC50 (human JAK2): 111 nM

Q: With `C[C@@H](O)CN1CCN(c2cccc(Nc3nc4c(-c5ccc(S(C)(=O)=O)cc5)cccn4n3)c2)CC1` [Example 143, (R)-1-(4-{3-[8-(4-Methanesulfonyl-phenyl)-[1,2,4]triazolo[1,5-a]pyridin-2-ylamino]-phenyl}-piperazin-1-yl)-propan-2-ol] as the compound, how does the IC50 (human FAK) read?
A: 1990 nM

Q: What about the IC50 (human JAK2) of the same compound?
A: 1.13 nM

Q: With `CN1CCN(c2ccc(Nc3nc4cccc(-c5ccc(S(C)(=O)=O)cc5)n4n3)cc2)CC1` [Example 81, [5-(4-Methanesulfonyl-phenyl)-[1,2,4]triazolo[1,5-a]pyridin-2-yl]-[4-(4-methyl-piperazin-1-yl)-phenyl]-amine] as the compound, how does the IC50 (human FAK) read?
A: 421 nM

Q: And the IC50 (human JAK2)?
A: 6.9 nM

Q: For `COc1ncccc1-c1cccn2nc(Nc3ccc(C4CCN(C(=O)OC(C)(C)C)CC4)cc3)nc12` [Example 271], which IC50 (human FAK) is on record?
A: 10000 nM

Q: And the IC50 (human JAK2)?
A: 675 nM

Q: With `CS(=O)(=O)c1ccc(-c2cccn3nc(Nc4ccc(N5CCOCC5)cc4)nc23)cc1` [Example 4, [8-(4-Methanesulfonyl-phenyl)-[1,2,4]triazolo[1,5-a]pyridin-2-yl]-(4-morpholin-4-yl-phenyl)-amine] as the compound, how does the IC50 (human FAK) read?
A: 461 nM

Q: What about the IC50 (human JAK2) of the same compound?
A: 0.9 nM

Q: How did the IC50 (human FAK) turn out when `CS(=O)(=O)c1ccc(-c2cccn3nc(Nc4cccc(N5CCN(CCCF)CC5)c4)nc23)cc1` [Example 187, {3-[4-(3-Fluoro-propyl)-piperazin-1-yl]-phenyl}-[8-(4-methanesulfonyl-phenyl)-[1,2,4]triazolo[1,5-a]pyridin-2-yl]-amine] was run?
A: 2440 nM

Q: What about the IC50 (human JAK2) of the same compound?
A: 4.93 nM

Q: Which IC50 (human FAK) does the source give for `COc1ccccc1-c1cccn2nc(Nc3ccc(N4CCN(C)CC4)cc3)nc12` [Example 55, [8-(2-Methoxy-phenyl)-[1,2,4]triazolo[1,5-a]pyridin-2-yl]-[4-(4-methyl-piperazin-1-yl)-phenyl]-amine] here?
A: 3000 nM

Q: What about the IC50 (human JAK2) of the same compound?
A: 38.4 nM

Q: `CS(=O)(=O)c1ccc(-c2cccn3nc(Nc4cccc(S(C)(=O)=O)c4)nc23)cc1` [Example 113, (3-Methanesulfonyl-phenyl)-[8-(4-methanesulfonyl-phenyl)-[1,2,4]triazolo[1,5-a]pyridin-2-yl]-amine] was tested. Which IC50 (human FAK) did it give?
A: 693 nM

Q: And the IC50 (human JAK2)?
A: 5.57 nM

Q: What does the source list for `CN1CCC(c2cccc(Nc3nc4c(-c5ccc(S(C)(=O)=O)cc5)cccn4n3)c2)CC1` [Example 61, [8-(4-Methanesulfonyl-phenyl)-[1,2,4]triazolo[1,5-a]pyridin-2-yl]-[3-(1-methyl-piperidin-4-yl)-phenyl]-amine]?
A: IC50 (human FAK): 265 nM; IC50 (human JAK2): 0.7 nM

Q: How did the IC50 (human FAK) turn out when `CN1CCN(c2cccc(Nc3nc4c(-c5ccc(P(C)(C)=O)cc5)cccn4n3)c2)CC1` [Example 198, {8-[4-(Dimethyl-phosphinoyl)-phenyl]-[1,2,4]triazolo[1,5-a]pyridin-2-yl}-[3-(4-methyl-piperazin-1-yl)-phenyl]-amine] was run?
A: 10000 nM

Q: What about the IC50 (human JAK2) of the same compound?
A: 1.73 nM

Q: Which results are given for `CS(=O)(=O)c1ccc(-c2cccn3nc(Nc4cnn(C5CCNCC5)c4)nc23)cc1` [Example 213, [8-(4-Methanesulfonyl-phenyl)-[1,2,4]triazolo[1,5-a]pyridin-2-yl]-(1-piperidin-4-yl-1H-pyrazol-4-yl)-amine]?
A: IC50 (human FAK): 3000 nM; IC50 (human JAK2): 0.71 nM

Q: For `COc1ccc(C(F)(F)F)cc1-c1cccn2nc(Nc3cccc(C4CCNCC4)c3)nc12` [Example 257, [8-(2-Methoxy-5-trifluoromethyl-phenyl)-[1,2,4]triazolo[1,5-a]pyridin-2-yl]-(3-piperidin-4-yl-phenyl)-amine], which IC50 (human FAK) is on record?
A: 481 nM

Q: What about the IC50 (human JAK2) of the same compound?
A: 28.9 nM

Q: What does the source list for `CN1CCN(c2ccc(Nc3nc4c(Nc5ccccc5CS(C)(=O)=O)cccn4n3)cc2)CC1` [Example 164, N(8)-(2-Methanesulfonylmethyl-phenyl)-N(2)-[4-(4-methyl-piperazin-1-yl)-phenyl]-[1,2,4]triazolo[1,5-a]pyridine-2,8-diamine]?
A: IC50 (human FAK): 1280 nM; IC50 (human JAK2): 22.1 nM

Q: With `COc1ccc(Nc2nc3cccc(-c4ccc(S(C)(=O)=O)cc4)n3n2)cc1` [Example 91, [5-(4-Methanesulfonyl-phenyl)-[1,2,4]triazolo[1,5-a]pyridin-2-yl]-(4-methoxy-phenyl)-amine] as the compound, how does the IC50 (human FAK) read?
A: 2600 nM

Q: What about the IC50 (human JAK2) of the same compound?
A: 1.9 nM

Q: What does the source list for `CN1CCN(c2ccc(NC(=O)Nc3nc4cccc(-c5cccc(S(C)(=O)=O)c5)n4n3)cc2)CC1` [Example 89, 1-[5-(3-Methanesulfonyl-phenyl)-[1,2,4]triazolo[1,5-a]pyridin-2-yl]-3-[4-(4-methyl-piperazin-1-yl)-phenyl]-urea]?
A: IC50 (human FAK): 8830 nM; IC50 (human JAK2): 230 nM

Q: How did the IC50 (human FAK) turn out when `CN1Cc2ccc(Nc3nc4c(NCc5cccnc5N(C)S(C)(=O)=O)cccn4n3)cc2C1` [Example 166, N-Methyl-N-(3-{[2-(2-methyl-2,3-dihydro-1H-isoindol-5-ylamino)-[1,2,4]triazolo[1,5-a]pyridin-8-ylamino]-methyl}-pyridin-2-yl)-methanesulfonamide] was run?
A: 48.1 nM

Q: And the IC50 (human JAK2)?
A: 12.8 nM

Q: `CS(=O)(=O)c1ccc(-c2cccn3nc(NCc4ccccn4)nc23)cc1` [Example 409, [8-(4-Methanesulfonyl-phenyl)-[1,2,4]triazolo[1,5-a]pyridin-2-yl]-pyridin-2-ylmethyl-amine] was tested. Which IC50 (human FAK) did it give?
A: 10000 nM

Q: And the IC50 (human JAK2)?
A: 6500 nM

Q: What does the source list for `COc1cccc(CNc2cccn3nc(Nc4ccc(C)nc4)nc23)c1` [Example 405, N(8)-(3-Methoxy-benzyl)-N(2)-(6-methyl-pyridin-3-yl)-[1,2,4]triazolo[1,5-a]pyridine-2,8-diamine]?
A: IC50 (human FAK): 10000 nM; IC50 (human JAK2): 1020 nM

Q: For `COc1ccc(Nc2nc3cccc(-c4ccc(CN5CCS(=O)(=O)CC5)cc4)n3n2)cc1` [Example 95, 5-{4-[(1,1-dioxidothiomorpholin-4-yl)methyl]phenyl}-N-(4-methoxyphenyl)[1,2,4]triazolo[1,5-a]pyridin-2-amine], which IC50 (human FAK) is on record?
A: 2000 nM

Q: What about the IC50 (human JAK2) of the same compound?
A: 1 nM

Q: How did the IC50 (human FAK) turn out when `FC(F)COc1ccc(Cl)cc1-c1cccn2nc(Nc3ccc4c(c3)CCNCC4)nc12` [Example 377, {8-[5-Chloro-(2,2-difluoro-ethoxy)-phenyl]-[1,2,4]triazolo[1,5-a]pyridin-2-yl}-(2,3,4,5-tetrahydro-1H-3-benzazepin-7-yl)-amine] was run?
A: 443 nM

Q: And the IC50 (human JAK2)?
A: 44 nM

Q: For `CN1CCN(c2ccc(Nc3nc4c(-c5cccc(S(C)(=O)=O)c5)cccn4n3)cc2)CC1` [Example 59, [8-(3-Methanesulfonyl-phenyl)-[1,2,4]triazolo[1,5-a]pyridin-2-yl]-[4-(4-methyl-piperazin-1-yl)-phenyl]-amine], which IC50 (human FAK) is on record?
A: 2590 nM

Q: What about the IC50 (human JAK2) of the same compound?
A: 3.3 nM

Q: Which results are given for `CN1CCN(c2ccc(Nc3nc4c(NCc5cccnc5N(C)S(C)(=O)=O)cccn4n3)cc2)CC1` [Example 122, N-Methyl-N-[3-({2-[4-(4-methyl-piperazin-1-yl)-phenylamino]-[1,2,4]triazolo[1,5-a]pyridin-8-ylamino}-methyl)-pyridin-2-yl]-methanesulfonamide]?
A: IC50 (human FAK): 30 nM; IC50 (human JAK2): 20.7 nM

Q: Which IC50 (human FAK) does the source give for `CN1CCC(c2ccc(Nc3nc4c(NCc5ccccc5S(C)(=O)=O)cccn4n3)cc2)CC1` [Example 140, N(8)-(2-Methanesulfonyl-benzyl)-N(2)-[4-(1-methyl-piperidin-4-yl)-phenyl]-[1,2,4]triazolo[1,5-a]pyridine-2,8-diamine] here?
A: 124 nM

Q: And the IC50 (human JAK2)?
A: 22.6 nM

Q: Which IC50 (human FAK) does the source give for `CCOc1ccccc1-c1cccn2nc(Nc3ccc4c(c3)CCN(CC(=O)N(C)C)CC4)nc12` [Example 246] here?
A: 10000 nM

Q: What about the IC50 (human JAK2) of the same compound?
A: 212 nM

Q: `CN(Cc1cccc(-c2cccn3nc(Nc4ccc(OCCN5CCCC5)cc4)nc23)c1)S(C)(=O)=O` [Example 177, N-Methyl-N-(3-{2-[4-(2-pyrrolidin-1-yl-ethoxy)-phenylamino]-[1,2,4]triazolo[1,5-a]pyridin-8-yl}-benzyl)-methanesulfonamide] was tested. Which IC50 (human FAK) did it give?
A: 3000 nM

Q: And the IC50 (human JAK2)?
A: 7.34 nM

Q: For `Cn1ncc2c(-c3cccn4nc(Nc5ccc6c(c5)CCNCC6)nc34)cccc21` [Example 298, [8-(1-Methyl-1H-indazol-4-yl)-[1,2,4]triazolo[1,5a]pyridine-2-yl]-(2,3,4,5-tetrahydro-benzo[d]azepin-7-yl)-amine], which IC50 (human FAK) is on record?
A: 1030 nM

Q: What about the IC50 (human JAK2) of the same compound?
A: 16.5 nM

Q: With `CN(C)C(=O)CN1CCc2ccc(Nc3nc4c(-c5cc(C(F)F)ccc5OCC(F)F)cccn4n3)cc2CC1` [Example 385, 2-(7-{8-[2-(2,2-difluoro-ethoxy)-5-difluoromethyl-phenyl]-[1,2,4]triazolo[1,5-a]pyridin-2-ylamino}-1,2,4,5-tetrahydro-3-benzazepin-3-yl)-N,N-dimethyl-acetamide] as the compound, how does the IC50 (human FAK) read?
A: 1120 nM

Q: What about the IC50 (human JAK2) of the same compound?
A: 270 nM

Q: With `CN1CCN(Cc2ccc(Nc3nc4cccc(-c5ccc(S(C)(=O)=O)cc5)n4n3)cc2)CC1` [Example 86, [5-(4-Methanesulfonyl-phenyl)-[1,2,4]triazolo[1,5-a]pyridin-2-yl]-[4-(4-methyl-piperazin-1-ylmethyl)-phenyl]-amine] as the compound, how does the IC50 (human FAK) read?
A: 264 nM

Q: What about the IC50 (human JAK2) of the same compound?
A: 1.7 nM

Q: Which IC50 (human FAK) does the source give for `CS(=O)(=O)c1ccccc1Nc1cccn2nc(Nc3ccc(OCCN4CCCC4)cc3)nc12` [Example 126, N(8)-(2-Methanesulfonyl-phenyl)-N(2)-[4-(2-pyrrolidin-1-yl-ethoxy)-phenyl]-[1,2,4]triazolo[1,5-a]pyridine-2,8-diamine] here?
A: 1300 nM

Q: And the IC50 (human JAK2)?
A: 14.3 nM

Q: `CS(=O)(=O)c1ccc(-c2cccc3nc(Nc4cccc(CN5CCS(=O)(=O)CC5)c4)nn23)cc1` [Example 121, N-{3-[(1,1-dioxidothiomorpholin-4-yl)methyl]phenyl}-5-[4-(methylsulfonyl)phenyl][1,2,4]triazolo[1,5-a]pyridin-2-amine] was tested. Which IC50 (human FAK) did it give?
A: 999 nM

Q: What about the IC50 (human JAK2) of the same compound?
A: 0.55 nM
